Article PMC6099557, “Cholinesterase Inhibition Activity, Alkaloid Profiling and Molecular Docking of Chilean Rhodophiala (Amaryllidaceae)” (Molecules : A Journal of Synthetic Chemistry and Natural …, 2018)
Values after ≈ are worked out from the molar mass of the structure shown. Like-named read-outs stand apart in the source and are kept apart here.

Key:
human erythrocye AChE = details: human erythrocyte AChE, tested 0.5–500 μg/mL, cited from earlier work
BuChE from equine serum = biological target: T1, BuChE from equine serum (Equus caballus, UniProt P81908); experiment: biochemical
T1 construct: BuChE from equine serum (Merck, Darmstadt, Germany); purchased Merck, Darmstadt, Germany; host or cells: equine serum
T1 sequence (P81908 whole entry): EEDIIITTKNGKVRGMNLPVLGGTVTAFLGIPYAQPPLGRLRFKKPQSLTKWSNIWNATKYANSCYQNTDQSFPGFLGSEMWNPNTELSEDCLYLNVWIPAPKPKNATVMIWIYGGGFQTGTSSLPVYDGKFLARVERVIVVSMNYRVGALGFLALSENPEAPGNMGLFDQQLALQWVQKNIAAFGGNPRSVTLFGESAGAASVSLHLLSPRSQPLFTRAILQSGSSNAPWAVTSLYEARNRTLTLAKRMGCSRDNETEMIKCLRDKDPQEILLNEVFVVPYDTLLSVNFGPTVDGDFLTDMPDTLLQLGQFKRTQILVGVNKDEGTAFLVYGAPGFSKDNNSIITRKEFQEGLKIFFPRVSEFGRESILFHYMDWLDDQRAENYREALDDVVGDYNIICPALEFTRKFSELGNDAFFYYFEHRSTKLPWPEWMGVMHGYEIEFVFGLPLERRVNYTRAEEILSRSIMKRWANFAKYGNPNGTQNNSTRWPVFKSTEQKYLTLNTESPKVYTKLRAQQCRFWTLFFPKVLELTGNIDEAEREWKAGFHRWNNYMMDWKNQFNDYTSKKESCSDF
Protocol: (§1) Cholinesterase inhibitory activities were determined according to [35] with some modifications. Stock solutions with 518U of AchE from Electrophorus electricus (Merck, Darmstadt, Germany) and BuChE from equine serum (Merck, Darmstadt, Germany), respectively, were prepared and kept at −20 °C. Acetylthiocholine iodide (ATCI), S-butyrylthiocholine iodide (BTCI) and 5,5′-dithiobis (2-nitrobenzoic acid) (DTNB) were obtained from Merck (Darmstadt, Germany). Fifty microliters of AChE or BuChE (both enzymes used at 6.24 U) in phosphate buffer (8 mM K2HPO4, 2.3 mM NaH2PO4, 0.15 NaCl, pH 7.5) and 50 μL of the sample dissolved in the same buffer were added to the wells. The plates were incubated for 30 min at room temperature. Then, 100 μL of the substrate solution (0.1 M Na2HPO4, […], and 0.6 mM ATCI or 0.24 mM BTCI in Millipore water, pH 7.5) was added. After 10 min, the absorbance was read at 405 nm in a Labsystem microplate reader (Thermo Fischer, Waltham, MA, USA). Enzyme activity was calculated as percent compared to a control using buffer without any inhibitor. […] In a first step, samples were assessed at 10, 100 and 200 μg/mL towards both enzymes. […] The cholinesterase inhibitory data were analyzed with the software Microsoft Office Excel 2010 (Microsoft, Redmond, WA, USA).

[1] = biological target: T2, AchE from Electrophorus electricus (Electrophorus electricus, UniProt O42275); experiment: biochemical; details: AChE inhibitory activity IC50, single alkaloids and reference galanthamine; electric eel AChE
T2 construct: purchased Merck, Darmstadt, Germany
T2 sequence (O42275 24-633): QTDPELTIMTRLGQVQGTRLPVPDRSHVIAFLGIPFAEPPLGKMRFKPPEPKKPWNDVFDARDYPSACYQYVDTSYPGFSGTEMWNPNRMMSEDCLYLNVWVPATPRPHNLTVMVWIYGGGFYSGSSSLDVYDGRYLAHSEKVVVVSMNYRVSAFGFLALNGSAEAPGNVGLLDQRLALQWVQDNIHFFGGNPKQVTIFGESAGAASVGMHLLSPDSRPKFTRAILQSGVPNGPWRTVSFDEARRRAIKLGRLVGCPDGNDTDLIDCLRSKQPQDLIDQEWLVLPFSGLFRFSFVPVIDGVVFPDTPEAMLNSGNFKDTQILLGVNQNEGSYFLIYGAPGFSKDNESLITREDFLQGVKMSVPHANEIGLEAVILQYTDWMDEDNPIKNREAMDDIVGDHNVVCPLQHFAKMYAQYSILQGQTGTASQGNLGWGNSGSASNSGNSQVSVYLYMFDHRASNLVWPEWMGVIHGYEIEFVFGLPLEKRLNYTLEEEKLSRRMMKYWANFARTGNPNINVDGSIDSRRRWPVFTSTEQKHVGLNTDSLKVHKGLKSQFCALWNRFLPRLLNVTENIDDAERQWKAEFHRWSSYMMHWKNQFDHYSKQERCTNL
Protocol: as §1

human serum BuChE = details: tested 0.5–500 μg/mL, cited from earlier work
[2] = test system: multi-drug resistant breast cell line NCLADR; details: montanine at 2.5 μg/mL; cited from earlier work
[3] = test system: panel of eight human cancer cell lines; details: cited from earlier work
S. aureus ATCC 6538 = details: cited from earlier work
P. aeruginosa ATCC 27853 = details: cited from earlier work
E. coli ATCC 24922 = details: cited from earlier work
[4] = BuChE inhibitory activity IC50, single alkaloids and reference galanthamine
[5] = single alkaloids and reference galanthamine, read-out: BuChE inhibitory activity IC50 (converted)

Structure (SMILES) | Activity on human AChE (in words) (human erythrocye AChE) | IC50 (BuChE from equine serum; [4]) [µM] | Activity on human BuChE (in words) (human serum BuChE) | also measured
COc1cc2c(cc1O)CN1CC[C@@]23C=C[C@@H](O)C[C@H]13 [8-O-demethylmaritidine (16), 8-O-demethylmaritidine] | presented activity | 468 | inactive | IC50 [1]: 414 µM
OC1C=CC23c4cc5c(cc4CN(CC2O)C3C1)OCO5 (centres unmarked) [11-hydroxyvittatine (20a), 11-hydroxyvittatine] |  |  |  | Activity on human AChE (in words) (human erythrocye AChE; listed as 11-hydroxyvitattine): not active; IC50 (BuChE from equine serum; [5]): > 696 µM; Activity on human BuChE (in words) (human serum BuChE; listed as 11-hydroxyvitattine): not active
COc1cc2c(cc1O)C13CCC(O)CC1N(CC3)C2 (centres unmarked) [deacetylcantabricine (17), deacetylcantabricine] |  | > 726 |  | IC50 [1]: > 726 µM
COC1C=CC23c4cc5c(cc4CN(CC2O)C3C1)OCO5 (centres unmarked) [haemanthamine (18a), haemanthamine] | not active | > 664 | not active | 
OC1C=CC23c4cc5c(cc4CN(CC2O)C3C1)OCO5 (centres unmarked) [hamayne (20b), hamayne] | presented activity |  | inactive | IC50 (BuChE from equine serum; [5]): 168 µM
O[C@H]1[C@H]2c3cc4c(cc3CN3CCC(=C[C@@H]1O)[C@H]23)OCO4 [lycorine (9), lycorine] | not active | > 696 | not active | 
CO[C@H]1C=C2[C@H]3C[N@@](Cc4cc5c(cc43)OCO5)[C@H]2C[C@@H]1O [montanine] |  |  |  | Activity on NCLADR compared with doxorubicine [2]: more active than doxorubicine; Activity towards a panel of eight human cancer cell lines [3]: showed activity; MIC (S. aureus ATCC 6538): 5 µg/mL (≈ 16.6 µM); MIC (P. aeruginosa ATCC 27853): 20 µg/mL (≈ 66.4 µM); MIC (E. coli ATCC 24922): 5 µg/mL (≈ 16.6 µM)
